{
  "source": "patent US20210386367A1",
  "about": "“DEVICES AND SYSTEMS FOR GASTROINTESTINAL MICROBIOME DETECTION AND MANIPULATION” (Progenity, Inc., priority 2018, published 2021)",
  "key": {"[1]": {"tested_on": "Viridans group Streptococcus", "assay": "Broth microdilution MIC, 15 clinical isolates", "format": "cell-based", "procedure": "(§1) Minimal inhibitory concentration (MIC) values were determined by broth microdilution or agar dilution in accordance with guidelines from the Clinical and Laboratory Standards Institute (CLSI; (1) “Methods for Dilution Antimicrobial Susceptibility Tests for Bacteria That Grow Aerobically; Approved Standard; 11th ed.” CLSI standard M07-A11, 2018; (2) “Performance Standards for Antimicrobial Susceptibility Testing; Twenty-Eighth Informational Supplement,” CLSI document M100-S28, 2018; and (3) “Methods for Antimicrobial Susceptibility Testing of Anaerobic Bacteria; Approved Standard—Eighth Edition,” CLSI document M11-A8, 2012).\n(§2) Tested aerobically by broth microdilution: • Escherichia coli, n=50 • Klebsiella spp., n=50 • Pseudomonas aeruginosa, n=50 • Streptococcus spp., n=50 • Staphylococcus aureus, n=50 • Enterococcus faecalis, n=50 • Enterobacter aerogenes, n=50 • Proteus mirabilis, n=50\n(§3) Broth microdilution testing of aerobic bacteria was conducted in cation-adjusted Mueller Hinton broth (MHBII). For testing streptococci, lysed horse blood (LHB) was added to MHBII broth at a final concentration of 3%. Where LHB was used, it was added after filtering.\n(§4) Broth microdilution susceptibility testing in 96-well microplates was conducted in accordance with CLSI methods (1) and (2). Automated liquid handlers were used to conduct serial dilutions and liquid transfers, including the Multidrop 384 (Labsystems, Helsinki, Finland), Biomek 2000, and the Biomek FX (Beckman Coulter, Fullerton, Calif.). All wells in columns 2 through 12 of a standard 96-well microdilution plate (Costar 3795) were filled with 150 μL of the appropriate diluent. Then, 300 μL of the test agents were added to the wells of column 1 of the plates at 100× the highest final concentration to be tested. Serial two-fold dilutions were made across the rows through column 11 using the Biomek 2000. The wells of column 12 contained no drug and served as the growth control wells. This plate served as the “mother plate” from which MIC assay plates or “daughter plates” were made.\n(§5) The daughter plates were loaded with 190 μL per well of the appropriate medium using the Multidrop 384. The daughter plates were created using the Biomek FX which transferred 2 μL of drug solution from each well of a mother plate to each corresponding well of the daughter plate in a single step. A standardized inoculum of each test organism was prepared per CLSI methods (1) to equal a 0.5 McFarland standard, followed by a dilution of 1:20 for aerobes and 1:10 for anaerobes. The plates were then inoculated with 10 μL of the diluted inoculum using the Biomek 2000 from low to high drug concentration, resulting in a final concentration of approximately 5×10^5 CFU/mL per well. An un-inoculated plate was incubated in parallel for each medium for the purpose of assessing solubility of the drug in the test media.\n(§6) Inoculated plates were stacked 3 or 4 high, covered with a sterile lid on the top plate, placed into boxes with CO2 planchets (streptococci) or plastic bags (all other isolates). Plates were incubated at 35° C. for 16-24 hr in ambient air for aerobes or for 42-48 hr in the anaerobic environment of the Bactron II anaerobe chamber (Sheldon Manufacturing Co.; Cornelius, Oreg.). Following incubation, the microplates were removed from the incubator and viewed from the bottom using a plate viewer. The MIC values were read and recorded as the lowest concentration of drug that inhibited visible growth of the organism as per CLSI methods (1) and (2)."}, "[2]": {"tested_on": "Streptococcus spp. spontaneous mutants", "conditions": "S. pneumoniae ATCC 49619; CLSI QC range shown in parentheses; cited from earlier work"}, "Streptococcus agalactiae": {"tested_on": "Streptococcus agalactiae", "assay": "Broth microdilution MIC, 20 clinical isolates", "format": "cell-based", "procedure": "as §1, §2, §3, §4, §5, §6"}, "[3]": {"tested_on": "Veillonella spp. clinical isolates", "assay": "MIC distribution against clinical isolates", "format": "cell-based", "conditions": "30 Veillonella spp. isolates"}, "[4]": {"tested_on": "Streptococcus spp. clinical isolates", "assay": "MIC distribution against clinical isolates", "format": "cell-based", "conditions": "54 Streptococcus spp. isolates", "from_the_text": "(n=19 S. pyogenes, n=20 S. agalactiae and n=20 Viridans group Streptococcus) clinical isolates (μg/mL).\nAs used herein, “minimum inhibitory concentration” or “MIC” refers to the lowest concentration of an antimicrobial agent, for example, an antimicrobial agent as described herein, required to inhibit the growth of an organism. […] “MIC90” represents the MIC value at which ≥90% of the strains within a test population are inhibited; the 90th percentile.\nMany susceptibility testing methods are known in the art and can be used as described herein (see, e.g., Jorgensen and Ferraro (2009) Clinical Infectious Diseases 49:1749-1755; and Maurer et al. (2017) Infectious Disease Reports 9:6839; the entire contents of each of the foregoing are incorporated herein by reference). For example, antimicrobial susceptibility can be determined using conventional culture based methods such as the broth or agar dilution test. In these dilution tests, the bacterial isolate of interest is inoculated onto different media that include serial dilutions of an antimicrobial agent, and incubated under appropriate conditions (e.g., overnight at 37° C.) to allow for growth to occur. Following the incubation period, the media is examined to determine bacterial growth. The lowest concentration of antibiotic that prevents growth represents the minimal inhibitory concentration (MIC). Broth dilution tests can be miniaturized and mechanized allowing for reproducibility and high throughput."}, "Streptococcus pyogenes": {"tested_on": "Streptococcus pyogenes", "assay": "Broth microdilution MIC, 19 clinical isolates", "format": "cell-based", "procedure": "as §1, §2, §3, §4, §5, §6"}, "E. coli MMX 1312": {"tested_on": "E. coli MMX 1312", "assay": "Broth microdilution MIC (time-kill study)", "format": "cell-based, Escherichia coli"}, "[5]": {"conditions": "15 Viridans group Streptococci clinical isolates"}, "[6]": {"conditions": "20 Streptococcus agalactiae clinical isolates"}},
  "note": "Like-named read-outs stand apart in the source and are kept apart here.",
  "data": [
    {"smiles": "C[C@@H](O)[C@H]1C(=O)N2C(C(=O)O)=C(S[C@@H]3CN[C@H](C(=O)N(C)C)C3)[C@H](C)[C@H]12", "note": "[meropenem]", "values": [
      {"measurement": "MIC50", "setting": "[1]; [5]", "result": 0.015, "unit": "µg/mL"},
      {"measurement": "MIC90", "setting": "[1]; [5]", "result": 0.5, "unit": "µg/mL"},
      {"measurement": "MIC range", "setting": "[1]; [5]", "result": "0.004 to 0.5", "unit": "µg/mL"},
      {"measurement": "% S", "setting": "[1]; 15 Viridans group Streptococci clinical isolates, MXF by FDA breakpoints", "result": 100, "unit": "%"},
      {"measurement": "MIC50", "setting": "[1]; Streptococcus, read-out: MIC50", "result": 0.015, "unit": "µg/mL"},
      {"measurement": "MIC90", "setting": "[1]; Streptococcus, read-out: MIC90", "result": 0.5, "unit": "µg/mL"},
      {"measurement": "Mode", "setting": "[1]; modal MIC, 15 Viridans group Streptococci clinical isolates", "result": 0.015, "unit": "µg/mL"},
      {"measurement": "MIC, CLSI QC range", "setting": "[2]", "result": "(0.03-0.25) μg/mL"},
      {"measurement": "MIC50", "setting": "Streptococcus agalactiae; [6]", "result": 0.03, "unit": "µg/mL"},
      {"measurement": "MIC90", "setting": "Streptococcus agalactiae; [6]", "result": 0.03, "unit": "µg/mL"},
      {"measurement": "MIC range", "setting": "Streptococcus agalactiae; [6]", "result": "0.015 to 0.06", "unit": "µg/mL"},
      {"measurement": "% S", "setting": "Streptococcus agalactiae; 20 Streptococcus agalactiae clinical isolates, MXF by FDA breakpoints", "result": 100, "unit": "%"},
      {"measurement": "MIC50", "setting": "Streptococcus agalactiae; Streptococcus agalactiae, read-out: MIC50", "result": 0.03, "unit": "µg/mL"},
      {"measurement": "MIC90", "setting": "Streptococcus agalactiae; Streptococcus agalactiae, read-out: MIC90", "result": 0.03, "unit": "µg/mL"},
      {"measurement": "Mode", "setting": "Streptococcus agalactiae; modal MIC, 20 Streptococcus agalactiae clinical isolates", "result": 0.03, "unit": "µg/mL"},
      {"measurement": "Cumulative percentage of isolates inhibited at MIC", "setting": "[3]; MIC 0.5 μg/mL", "result": 43.3, "unit": "%"},
      {"measurement": "Number of test isolates at MIC", "setting": "[3]; MIC 0.5 μg/mL", "result": 2},
      {"measurement": "Cumulative percentage of isolates inhibited at MIC", "setting": "[3]; MIC 1 μg/mL", "result": 53.3, "unit": "%"},
      {"measurement": "Number of test isolates at MIC", "setting": "[3]; MIC 1 μg/mL", "result": 3},
      {"measurement": "Cumulative percentage of isolates inhibited at MIC", "setting": "[3]; MIC 2 μg/mL", "result": 70.0, "unit": "%"},
      {"measurement": "Number of test isolates at MIC", "setting": "[3]; MIC 2 μg/mL", "result": 5},
      {"measurement": "Cumulative percentage of isolates inhibited at MIC", "setting": "[3]; MIC 4 μg/mL", "result": 76.7, "unit": "%"},
      {"measurement": "Number of test isolates at MIC", "setting": "[3]; MIC 4 μg/mL", "result": 2},
      {"measurement": "Cumulative percentage of isolates inhibited at MIC", "setting": "[3]; MIC 8 μg/mL", "result": 100.0, "unit": "%"},
      {"measurement": "Number of test isolates at MIC", "setting": "[3]; MIC 8 μg/mL", "result": 7},
      {"measurement": "Cumulative percentage of isolates inhibited at MIC", "setting": "[4]; MIC 0.004 μg/mL", "result": 29.6, "unit": "%"},
      {"measurement": "Number of test isolates at MIC", "setting": "[4]; MIC 0.004 μg/mL", "result": 15},
      {"measurement": "Cumulative percentage of isolates inhibited at MIC", "setting": "[4]; MIC 0.008 μg/mL", "result": 40.7, "unit": "%"},
      {"measurement": "Number of test isolates at MIC", "setting": "[4]; MIC 0.008 μg/mL", "result": 6},
      {"measurement": "Cumulative percentage of isolates inhibited at MIC", "setting": "[4]; MIC 0.015 μg/mL", "result": 57.4, "unit": "%"},
      {"measurement": "Number of test isolates at MIC", "setting": "[4]; MIC 0.015 μg/mL", "result": 9},
      {"measurement": "Cumulative percentage of isolates inhibited at MIC", "setting": "[4]; MIC 0.03 μg/mL", "result": 92.6, "unit": "%"},
      {"measurement": "Number of test isolates at MIC", "setting": "[4]; MIC 0.03 μg/mL", "result": 19},
      {"measurement": "Cumulative percentage of isolates inhibited at MIC", "setting": "[4]; MIC 0.06 μg/mL", "result": 94.4, "unit": "%"},
      {"measurement": "Number of test isolates at MIC", "setting": "[4]; MIC 0.06 μg/mL", "result": 1},
      {"measurement": "Cumulative percentage of isolates inhibited at MIC", "setting": "[4]; MIC 0.5 μg/mL", "result": 100.0, "unit": "%"},
      {"measurement": "Number of test isolates at MIC", "setting": "[4]; MIC 0.5 μg/mL", "result": 2},
      {"measurement": "Cumulative percentage of isolates inhibited at MIC", "setting": "[4]; MIC […]", "result": 96.3, "unit": "%"},
      {"measurement": "Number of test isolates at MIC", "setting": "[4]; MIC […]", "result": 1},
      {"measurement": "Cumulative percentage of isolates inhibited at MIC", "setting": "[4]; MIC ≤0.002 μg/mL", "result": 1.9, "unit": "%"},
      {"measurement": "Number of test isolates at MIC", "setting": "[4]; MIC ≤0.002 μg/mL", "result": 1},
      {"measurement": "% S", "setting": "Streptococcus pyogenes", "result": 100, "unit": "%"},
      {"measurement": "MIC range", "setting": "Streptococcus pyogenes", "result": "≤0.002-0.03^ μg/mL"},
      {"measurement": "Mode", "setting": "Streptococcus pyogenes", "result": 0.004, "unit": "µg/mL"},
      {"measurement": "MIC50", "setting": "Streptococcus pyogenes; Streptococcus pyogenes, read-out: MIC50", "result": 0.004, "unit": "µg/mL"},
      {"measurement": "MIC90", "setting": "Streptococcus pyogenes; Streptococcus pyogenes, read-out: MIC90", "result": 0.008, "unit": "µg/mL"},
      {"measurement": "MIC", "setting": "E. coli MMX 1312; E. coli MMX 1312", "result": 0.008, "unit": "µg/mL"},
      {"measurement": "MIC", "setting": "E. coli MMX 1312; Escherichia coli, MMX1312, broth microdilution, read-out: MIC", "result": 0.008, "unit": "µg/mL"}
    ]}
  ]
}
